From EP0126849A1, “Pharmacologically active N-amino hydantoin derivatives, their synthesis and intermediates” (THE WELLCOME FOUNDATION LIMITED, priority 1983, dated 1984)
Converted amounts (≈) assume the structure as drawn. Like-named read-outs stand apart in the source and are kept apart here.

How the values were obtained:
[1] = system: mean systemic arterial blood pressure (BP); assay: Cardiovascular actions in rats: fall in blood pressure and duration of the hypotensive effect; format: in vivo, male Wistar rats; conditions: for Fall in BP Relative Potency PGE1 / Fall in BP Relative Potency PGI2: anaesthetized rat, i.v. injection; for Fall in BP Relative Potency PGE1: potency ratio against PGE1; for Fall in BP Relative Potency PGI2: potency ratio against PGI2; for Duration t½: time from peak hypotensive response to recovery to half its peak, rat i.v.
Procedure: Anaesthesia was induced in male Wistar rats (250-300 g body weight) with sodium pentobarbitone (30 mg kg^-1, i.v.) and supplemented (3 mg kg^-1) when required. Arterial pressure was recorded from a cannulated femoral artery and heart rate derived from the arterial pulse. Rectal temperature was maintained at 37°C by thermistor-controlled radiant heat. Each compound was injected into a femoral vein in a volume of 0.25 ml and flushed in with 0.2 ml of saline (0.9% w/v). Dose-response relationships for the fall in mean systemic arterial blood pressure (BP) with the hydantoins were constructed and compared to those obtained with PGI2 and PGE, in the same animal, and a potency ratio calculated. […] Figures for Compound X and PGI2 are listed for comparison.

[2] = system: platelet aggregation; assay: Inhibition of platelet aggregation in human platelet-rich plasma (Born-type aggregometer, ADP or other aggregating agent); format: cell-based; conditions: for IC50 / Potency relative to PGI2: human PRP; for IC50: 1 min incubation at 37°C before aggregating agent; for Potency relative to PGI2: 1 min incubation, PGI2 = 1; for Increase on Incubation (min) 5: increase in potency after 5 min incubation in PRP
Procedure: Human blood was freshly collected into siliconized (Siloclad; Clay Adams) plastic (Sterilin Ltd.) vessels containing trisodium citrate (3.15%; 0.1 volume with 0.9 volume blood) and centrifuged (200 g for 15 min) at room temperature. The platelet-rich plasma (PRP) was withdrawn into plastic containers and kept at room temperature. Inhibition of […] prior to addition of sufficient adenosine diphosphate (ADP) or other aggregating agent to just cause a non-reversing control aggregation. Dose-inhibition curves were constructed for each compound and the ID50 (dose causing 50% inhibition) was calculated as the dose required to reduce the aggregation to 50% of its control amplitude. […] For comparison, also given are the results upon administration of 5-(6-carboxyhexyl)-1-(3-cyclohexyl-3-hydroxypropyl)hydantoin (Compound X) which is disclosed in UK Specification 1,595,694. -
In this and subsequent biological examples, where a compound number refers to a single diastereoisomer, a mixture of diastereoisomers is indicated by two compound numbers separated by /.

[3] = system: B.P.; assay: Cardiovascular studies in the dog: vasodepressor potency and duration; format: in vivo, Dogs; conditions: i.v. bolus
Procedure: Dogs (10-15 kg body weight) were anaesthetized with chloralose (80 mg/kg i.v.) and maintained with subcutaneous injections of pentobarbitone (3 mg/kg). Drugs were administered via a femoral vein by bolus injection and B.P. was recorded from the right femoral artery. Results give vasodepressor potency and t1 2 duration. Figures for Compound X are provided for comparison.

[4] = system: acid-ethanol induced gastric lesions; assay: Inhibition of acid-ethanol induced gastric lesions in rats (cytoprotection); format: in vivo; conditions: rat, oral
Procedure: The inhibition of acid-ethanol induced gastric lesions in rats (cytoprotection) was measured for various doses of orally administered hydantoin. Figures for compound X are given for comparison.

[5] = system: rabbit platelet aggregation; assay: Ex vivo rabbit platelet aggregation after i.v. infusion of the hydantoin (ADP 20 µM); format: in vivo, rabbits; conditions: i.v. infusion for 15 min, blood sample 10 min after start of infusion
Procedure: Male rabbits (2-2.5 kg body weight) were anaesthetized with sodium pentobarbitone (30 mg/kg, i.v. followed by maintenance doses of 3mg/kg) and systemic arterial blood pressure (BP) was recorded from a cannula filled with
heparinized saline (5 units/ml) in a carotid artery; no heparin was administered to the animal. Hydantoins were administered via a cannula in a femoral vein. Blood samples (1.5 ml) were slowly collected into a plastic syringe containing tri-sodium citrate (3.18%, 0.15 ml) from a cannula inserted into a femoral artery, shaken gently and transferred to an Eppendorf plastic tube and spun in a modified Eppendorf centrifuge for 2 sec (Model 5412, maximum centrifugal force 10,000 x g). The PRP was collected and a 0.35 ml aliquot was transferred to the aggregometer and incubated at 37°C for 1 minute prior to addition of sufficient ADP (20 µM) to produce near-maximal aggregation. The time-interval between removal of blood samples and the transference of the PRP to the aggregometer was less than 1.5 min.
Blood samples were removed at 10 min. intervals once the BP of the rabbit had reached steady resting levels, 10-20 min. following the preparative surgical procedures. After three control blood samples had been prepared and the control aggregation of the platelets measured, the hydantoin was infused intravenously for 15 min from a Braun slow-infusion apparatus. Blood samples were collected 10 min after the start of the infusion. Two further 10 min. samples post-infusion were collected prior to commencing further infusions.
The following results list values of ED50 and change in blood pressure. For comparison, also given are the results obtained upon administration of PGIZ and Compound X.

[6] = system: systemic arterial blood pressure (BP); assay: Concurrent change in systemic arterial blood pressure in anaesthetized rabbits; format: in vivo; conditions: anaesthetized rabbit, i.v. infusion, at the ED50 dose
Procedure: Male rabbits (2-2.5 kg body weight) were anaesthetized with sodium pentobarbitone (30 mg/kg, i.v. followed by maintenance doses of 3mg/kg) and systemic arterial blood pressure (BP) was recorded from a cannula filled with heparinized saline (5 units/ml) in a carotid artery; no heparin was administered to the animal. Hydantoins were administered via a cannula in a femoral vein. Blood samples (1.5 ml) were slowly collected into a plastic syringe containing tri-sodium citrate (3.18%, 0.15 ml) from a cannula inserted into a femoral artery, shaken gently and transferred to an Eppendorf plastic tube and spun in a modified Eppendorf centrifuge for 2 sec (Model 5412, maximum centrifugal force 10,000 x g). The PRP was collected and a 0.35 ml aliquot was transferred to the aggregometer and incubated at 37°C for 1 minute prior to addition of sufficient ADP (20 µM) to produce near-maximal aggregation. The time-interval between removal of blood samples and the transference of the PRP to the aggregometer was less than 1.5 min. […] After three control blood samples had been prepared and the control aggregation of the platelets measured, the hydantoin was infused intravenously for 15 min from a Braun slow-infusion apparatus. Blood samples were collected 10 min after the start of the infusion. Two further 10 min. samples post-infusion were collected prior to commencing further infusions. The following results list values of ED50 and change in blood pressure. For comparison, also given are the results obtained upon administration of PGIZ and Compound X.

[7] = Homo sapiens, Platelet, 1 min, read-out: IC50

Compound | IC50 [2, 7] | Increase on Incubation (min) 5 [2] | IC50 [2] | Fall in BP Relative Potency PGE1 [1] | Fall in BP Relative Potency PGI2 [1] | Duration t½ [1] | Potency relative to PGI2 [2] | further results
O=C(O)CCCCCCC1C(=O)NC(=O)N1NCC(O)C1CCCCC1 (single isomer, unassigned) [compound 29, 5-(6-carboxyhexyl)-1-(2-cyclohexyl-2-hydroxyethylamino)hydantoln] | 6 ng/mL (≈ 0.0162 µM) | x7 |  | 0.24 | 0.02 | 37 min | 0.16 | Δ BP ([3]; Dose 0.625 ug kg^-1): -26 mm Hg; t1/2 ([3]; Dose 0.625 ug kg^-1, duration of vasodepressor effect): >30 min; Δ BP ([3]; Dose 1.25 ug kg^-1): -51 mm Hg; t1/2 ([3]; Dose 1.25 ug kg^-1, duration of vasodepressor effect): >60 min
CCOC(=O)CCCCCCC1C(=O)NC(=O)N1N=CC(OC(C)=O)C1CCCCC1 (stereo not shown) [4/5, 1-(2-acetoxy-2-cyclohexylethylideneamino)-5-(6-ethoxycarbonylhexyl)hydantoin] |  |  |  |  |  |  |  | % inhibition ([4]; Dose 50 μg kg^-1): 90 ± 6%
O=C(O)CCCCCCC1C(=O)NC(=O)N1N=CC(O)Cc1ccccc1 (stereo not shown) [23/24, 5-(6-carboxyhexyl)-1-(2-hydroxy-3-phenylpropylideneamino)hydantoin] |  |  |  |  |  |  |  | % inhibition ([4]; Dose 10 μg kg^-1): 55 ± 15%
CN1C(=O)C(CCCCCCC(=O)O)N(N=CC(O)C2CCCCC2)C1=O (stereo not shown) [25/26, 5-(6-carboxyhexyl)-1-(2-cyclohexyl-2-hydroxyethylideneamino)-3-methylhydantoin] | 13 ng/mL (≈ 0.0341 µM) | x6 |  | 1.08 | 0.09 | 9 min | 0.06 | 
O=C(O)CCCCCCC1C(=O)NC(=O)N1NCC(O)c1ccccc1 (stereo not shown) [33/34, 5-(6-carboxyhexyl)-1-(2-hydroxy-2-phenylethylamino) hydantoin] |  | x2 | 6 ngml^-1 | 0.24 | 0.02 | 6 min | 0.17 | 
CN1C(=O)C(CCCCCCC(=O)O)N(NCC(O)C2CCCCC2)C1=O (stereo not shown) [37/38] | 3 ng/mL (≈ 0.00782 µM) | x7 |  | 0.36 | 0.03 | 17 min | 0.18 | % inhibition ([4]; Dose 10 μg kg^-1): 71 ± 7%
O=C(O)CCCCCCC1C(=O)NC(=O)N1NCC(O)C1CCCCC1 (stereo not shown) [Compound No. 30, 5-(6-carboxyhexyl)-1-(2-cyclohexyl-2-hydroxyethylamino) hydantoin] | 0.9 ng/mL (≈ 0.00244 µM) | x6 |  | 0.24 | 0.02 | 28 min | 0.64 | % inhibition ([4]; Dose 25 μg kg^-1): 65 ± 17%
O=C(O)CCCCCCC1C(=O)NC(=O)N1NCC(O)c1ccccc1 (stereo not shown) [Compound No. 33, 5-(6-carboxyhexyl)-1-(2-hydroxy-2-phenylethylamino)hydantoin] |  | x2 | 5.3 ngml^-1 |  |  |  | 0.07 | 
O=C(O)CCCCCCC1C(=O)NC(=O)N1NCC(O)c1ccccc1 (stereo not shown) [Compound No. 34, 5-(6-carboxyhexyl)-1-(2-hydroxy-2-phenylethylamino)hydantoin] |  |  | 175 ngml^-1 |  |  |  | 0.003 | 
CCCCC[C@H](O)/C=C/[C@@H]1[C@H]2C/C(=C/CCCC(=O)O)O[C@H]2C[C@H]1O [PGI2, reference compound] |  |  |  | 11.0 |  | 0.3 min |  | ED50 [5]: 0.2 µg/kg/min; Δ BP [6]: -20 mmHg

Second part, led by results:

IC50 [2, 7] | Increase on Incubation (min) 5 [2] | IC50 [2] | Compound | Fall in BP Relative Potency PGE1 [1] | Fall in BP Relative Potency PGI2 [1] | Duration t½ [1] | Potency relative to PGI2 [2] | further results
1 ng/mL (≈ 0.00277 µM) | x8 |  | O=C(O)CCCCCCC1C(=O)NC(=O)N1N=CC(O)c1ccccc1 (single isomer, unassigned) [Compound No. 11, 5-(6-carboxyhexyl)-1-(2-hydroxy-2-phenylethylldeneamino)hydantoln] | 1.1 | 0.1 | 16.0 min | 0.53 | 
12.7 ng/mL (≈ 0.0355 µM) | x1.5 |  | CCCCCC(O)CNN1C(=O)NC(=O)C1CCCCCCC(=O)O (single isomer, unassigned) [Compound No. 35, 5-(6-carboxyhexyl)-I-(2-hydroxyheptylamino)hydantoin] |  | 0.01 | 1.3 min | 0.05 | 
 | x2 | 8 ngml^-1 | CCCCCC(O)C=NN1C(=O)NC(=O)C1CCCCCCC(=O)O (stereo not shown) [17/18, 5-(6-carboxyhexyl)-1-(2-hydroxyheptylideneamino)hydantoin] | 0.48 | 0.04 | 10 to 19 min | 0.12 | 
1.27 ng/mL (≈ 0.00355 µM) | x1.5 |  | CCCCCC(O)CNN1C(=O)NC(=O)C1CCCCCCC(=O)O (stereo not shown) [35/36, 5-(6-carboxyhexyl)-1-(2-hydroxyheptylamino)hydantoin] |  | 0.06 | 0.1 min | 0.49 | 
 | x2 | 131 ngml^-1 | CCCCCC(O)C=NN1C(=O)NC(=O)C1CCCCCCC(=O)O (stereo not shown) [Compound No. 17, 5-(6-carboxyhexyl)-1-(2-hydroxyheptylideneamino)hydantoin] | 0.12 | 0.01 | 3.5 min | 0.01 | 
24 ng/mL (≈ 0.0683 µM) |  |  | O=C(O)CCCCCCC1C(=O)NC(=O)N1N=CCC1CCCCC1 (stereo not shown) [compound 8, 5-(6-carboxyhexyl)-1-(2-cyclahexylethylideneamino) hydantoin] | 0.11 | 0.01 | 1.0 min | 0.05 | % inhibition ([4]; Dose 25 μg kg^-1): 71 ± 6%; % inhibition ([4]; Dose 50 μg kg^-1): 76 ± 11%
